Test [1] deals with Protein kinase C (PKC) (Rattus norvegicus) (UniProt P05696+P68403+P09216+P63319+P09215+Q64617+Q9WTQ0+P09217). As to the kind of experiment: Antagonist activity against protein Kinase C. The class given is functional.
Test [2] relates to HL-60. The test is described as follows: Compound was tested for the inhibition of the growth of HL60 cells at a concentration 10E-4 M; reduction of growth was observed. The class given is functional. The note with it: Homo sapiens.
Test [3] deals with HL-60. As to the kind of experiment: Compound was tested for the inhibition of the growth of HL60 cells at a concentration 10E-4 M; NS no significant affect is observed. To be noted: Homo sapiens. The class given is functional, cell-based.

Active and inactive are the calls of the source. The calls are words filed in the database; no cut-off is given here.

For the molecule `CCCCCCCOC(=O)O[C@@H]1[C@@H](CO)OC(=O)[C@@H]1OC(=O)OCCCCCCC`, the result in test [1] was inactive. For `CCCCCCCOC(=O)O[C@H]1CC(=O)O[C@@H]1CO`, the result in test [1] was inactive. This molecule had an inhibition at 100 µM in test [2] of 20%. On to `CCCCCCCOC(=O)O[C@H]1OC(=O)C[C@@H]1O`, for which, in test [3], the outcome was inactive. With `CCCCCCCOC(=O)O[C@H]1OC(=O)[C@H](O)[C@@H]1O`, the outcome in test [1] was inactive. With `CCCCCCCOC(=O)O[C@H]1OC(=O)[C@H](O)[C@@H]1OC(=O)OCCCCCCC`, in test [1], the outcome was inactive.

A word on the inhibition: it is the percentage by which the read-out fell short of the control. Low readings indicate a weak effect, high ones a strong effect.

(Values after ChEMBL document CHEMBL1126395, “The synthesis of conformationally-restricted diacyl glycerol analogues” (1992).)
